Measurements reported in patent US4578400A, “Therapeutic composition and method for treatment of cardiovascular diseases” (priority 1982, dated 1986).

Columns and labels:
Acute toxicity = conditions: one week observation
Excerpt: Male ddy mice weighing about 25 g were divided into groups of 10 animals and orally administered once with 3 g/kg of 5--HDA, 5--HDA--Na, 5--HDAE, 5--HDA--DHP or δ-DL, or intraperitoneally injected once with 1 g/kg of said compounds.

[1] = Solubility (physicochemical properties, Table 1)
[2] = Lowering serum lipid levels in Triton-induced hyperlipidemic rats; assay type: in vivo, male Wistar rats
Description: After 10 hours, blood samples were drawn to determine the serum levels of total cholesterol and triglyceride.

[3] = Lowering serum cholesterol levels in hyperlipidemic rabbits; assay type: in vivo, male Japanese white rabbits; conditions: 100 mg/kg oral daily for 7 days
Excerpt: Male Japanese white rabbits weighing about 2.5 kg were fed on a solid diet containing 1% cholesterol (RC-4, Nippon Crea Co., Ltd.) for 10 weeks until hypercholesterolemia fully developed. The rabbits were then divided into groups of 5 animals, and 5--HDA--Na or δ-DL was orally admininistered daily for 7 days, either as a solution or as an emulsion in 5% aqueous arabic gum. Three hours after the last administration, blood was drawn to determine the serum level of cholesterol.

[4] = test system: ventricular fibrillation after coronary artery ligation; test: Antiarrhythmic effects on myocardial infarction (coronary ligation); assay type: in vivo, dogs; conditions: for Threshold level for inducing ventricular fibrillation, 30 min after ligation: before ligation = 100, control 41
Excerpt: Antiarrhythmic effects on myocardial infarction
The method described by Shinohara (Jap. Circul. J., 32, 1269-1281, 1968) was used. Dogs were divided into groups of 5 animals, anesthetized with intravenous pentobarbital and were thoracotomized under artificial respiration, and a platinum bipolar electrode was inserted on the wall of the right atrium. Then the sinus node was crushed and the animals were subjected to pacing (2.5 Hz, 3 msec, 3.5-8 V) with an electronic stimulator. The left anterior descending coronary artery was doubly ligated at a site 2 cm away from its origin (A. S. Harris, Circulation, 1, 1318, 1950). Then 5--HDA--Na and lidocaine were injected into the femoral vein of the respective dogs. Using an electrode inserted in an ischemic zone in the left ventricle, the animals were given 15 to 20 successive electrical shocks before the ligation and 30 minutes after the ligation and administration. The threshold level necessary for inducing ventricular fibrillation was determined for each group of animals and shown in Table 4, with the values before the ligation taken as 100.

[5] = test system: chloroform-induced arrhythmia (ventricular fibrillation); test: Effect on chloroform-induced arrhythmia; assay type: in vivo, male ddy mice; conditions: for Percent occurrence of ventricular fibrillation: 15 min before chloroform, control 100
Excerpt: When they stopped breathing, they were thoracotomized to examine the occurrence of ventricular fribrillation. The results are noted in Table 2 as percent occurrence of ventricular fibrillation.

[6] = test system: ouabain induced arrhythmia; test: Effect on ouabain induced arrhythmia; assay type: in vivo, male hartley guinea pigs; conditions: for relative time for extrasystole to occur / relative time for cardiac arrest to occur / relative time for ventricular fibrillation to occur: control = 100
Excerpt: Effect on ouabain induced arrhythmia
The procedure described in Matsubara et al. (Folia Pharmacologica Japonica, 72, 557-571, 1976) was followed.
Male hartley guinea pigs were divided into groups of 8 animals and anesthetized with intraperitoneal urethane. Three groups were orally administered 5--HDA--Na, 5--HDAE and 5--HDA--DHP dissolved in distilled water. Another group was intravenously injected with 5--HDA--Na dissolved in physiological saline. One group was orally administered δ-DL emulsified in 5% aqueous arabic gum solution. One group was injected intravenously with lidocaine dissolved in physiological saline. For the respective routes of administration, control groups were administered the solvents used in administration of the test compounds. Thirty minutes after the oral administration and one minute after the intravenous injection, ouabain was infused into the jugular vein at a rate of 5 μg/kg/min until extrasystole, ventricular fibrillation and cardiac arrest appeared on a standard limb lead II of ECG. The results are shown in Table 3, with the time necessary for the respective symptoms to occur in the control groups taken as 100.

[7] = 100 mg/kg oral, four times, against control, 10 hours after Triton WR-1339, *P < 0.05

## CCCCCC(O)CCCC(=O)[O-].[Na+] (stereo not drawn)
Acute toxicity; 1 g/kg intraperitoneal once
  acute toxicity: abnormality: no abnormality occurred
  acute toxicity: death: no animal died
Acute toxicity; 3 g/kg oral once
  acute toxicity: abnormality: no abnormality occurred
  acute toxicity: death: no animal died
[1]; acetone
  solubility in acetone: easily soluble
[1]; benzene
  solubility in benzene: sparingly
[1]; chloroform
  solubility in chloroform: sparingly
[1]; hexane
  solubility in hexane: sparingly
[1]; methanol
  solubility in methanol: easily soluble
[1]; water
  solubility in water: easily soluble
[2]; [7]
  inhibition rate, total cholesterol (serum): 20%
  inhibition rate, triglyceride (serum): 15%
[2]; 100 mg/kg, oral
  antilipidemic effects compared with Clofibrate (in words): equipotent to or stronger than the effect of the known anti-lipidemic agent, Clofibrate
[3]
  serum level of total cholesterol (in words): lowered the serum level of total cholesterol
[3]; 3 h after last administration, control 1,394, *P < 0.05
  Total serum cholesterol: 1,165 mg/dl
[4]; 0.3 mg/kg i.v.
  Threshold level for inducing ventricular fibrillation, 30 min after ligation: 67
[4]; 1.0 mg/kg i.v., *P < 0.05
  Threshold level for inducing ventricular fibrillation, 30 min after ligation: 70
[4]; 3.0 mg/kg i.v., *P < 0.05
  Threshold level for inducing ventricular fibrillation, 30 min after ligation: 79
[4]; after coronary ligation, i.v.
  threshold level for inducing ventricular fibrillation (in words): increased in a dose-dependent manner
[5]; 50 mg/kg, oral
  Percent occurrence of ventricular fibrillation: 50
[5]; 100 mg/kg oral vs lidocaine 10 mg/kg i.p.
  anti-arrhythmic potency compared with lidocaine (in words): more potent than lidocaine
[5]; 100 mg/kg, oral
  anti-arrhythmic effects (in words): significant anti-arrhythmic effects
[5]; 100 mg/kg, oral, *P < 0.05
  Percent occurrence of ventricular fibrillation: 30
[6]; i.v., 20 mg/kg
  relative time for extrasystole to occur: 146
[6]; i.v., 20 mg/kg, *P < 0.05
  relative time for cardiac arrest to occur: 132
  relative time for ventricular fibrillation to occur: 140
[6]; oral, 50 mg/kg
  relative time for extrasystole to occur: 118
[6]; oral, 50 mg/kg, *P < 0.05
  relative time for cardiac arrest to occur: 134
  relative time for ventricular fibrillation to occur: 126
[6]; oral, 100 mg/kg
  relative time for extrasystole to occur: 160
[6]; oral, 100 mg/kg, *P < 0.05
  relative time for ventricular fibrillation to occur: 144
[6]; oral, 100 mg/kg, *P < 0.05 where starred
  relative time for cardiac arrest to occur: 136
[6]; ouabain induced arrhythmia
  antiarrhythmic effects (in words): significant antiarrhythmic effects
